Patent US20070207112A1, “Anti-acne composition” (GRANT INDUSTRIES, INC., priority 2006, published 2007)
Residues, ends and D or L forms follow the SMILES beside them.

Key:
P. acnes [1] = assay type: cell-based; conditions: salicylate 0.08% to 5%
Source text: In-Vitro testing for the synergetic inhibitory effects of Compound A and salicylic acid on the growth of P. acnes.
The objective of this experiment was to establish the minimal inhibitory concentration (MIC) of the peptide (Compound A) towards the bacterium P. acnes, in the presence of a range of concentrations of sodium salt of salicylic acid. MIC is defined as the lowest concentration of an active material resulting in lack of microbial growth. P. acnes (BD, cat. #237038, batch #6152097) was inoculated at 3 different dilutions and grown on blood agar plates for one week in anaerobic condition at 37 deg. C. Bacteria were then inoculated in thioglycollate broth in a 96 well plate, at the density equal to 0.5 McFarland standard in the presence of peptide (Compound A) concentrations ranging from 0.25 ug/ml to 32 ug/ml and salicylate concentrations ranging from 0.08% to 5% (checker method). MIC was determined visually and confirmed by spectrophotometry at 490 nm and 590 nm on the BioRad 3550-UV microplate reader.

P. acnes [2] = conditions: cited from earlier work

Row | SMILES | Effect of added sodium salicylate on antimicrobial activity of the peptide (P. acnes [1]) | MIC against P. acnes (in words) (P. acnes [2]; in-vitro, reported in earlier filings) | Antibacterial activity against P. acnes (P. acnes [2]; U.S. Pat. No. 4,520,133)
1 | CC(C)C[C@H](NC(=O)[C@H](C)NC(=O)[C@H](CCCCN)NC(=O)[C@H](CC(C)C)NC(=O)[C@H](C)NC(=O)[C@H](CCCCN)NC(=O)[C@H](CC(C)C)NC(=O)[C@H](CC(C)C)NC(=O)[C@H](C)NC(=O)[C@H](CCCCN)NC(=O)[C@H](CC(C)C)NC(=O)[C@H](C)NC(=O)[C@H](CCCCN)NC(=O)[C@H](C)NC(=O)[C@@H](N)Cc1ccccc1)C(N)=O [Compound A, FAKALKALLKALKAL-NH2] (H-FAKALKALLKALKAL-NH2; N-terminus assumed) | strongly enhance its antimicrobial activity | low in-vitro minimum inhibitory concentration (MIC) against P. acnes | 
2 | O=C(O)c1ccccc1O [salicylic acid, reference compound] |  |  | does not posses any antibacterial activity against P. acnes
